Results as given in patent US20060116419A1, “Nf-kb inhibitors” (priority 2002, published 2006).

Experiments:
[1] = test system: human primary synovial fibroblasts; assay: Mediator production by stimulated human primary synovial fibroblasts; type: cell-based
Experimental: The effect of IKK-β inhibitors on primary synovial fibroblast mediator production was assesses as follows: Primary cultures of human RSF were obtained by enzymatic digestion of synovium obtained from adult patients with rheumatoid arthritis as previously described (Roshak et al., 1996b). Cells were cultured in Earl's Minimal Essential Medium (EMEM) which contained 10% fetal bovine serum (FBS), 100 units/ml penicillin and 100 μg/ml streptomycin (GIBCO, Grand Island, N.Y.), at 37° C. and 5% CO2. Cultures were used at passages 4 through 9 in order to obtain a more uniform type B fibroblast population. For some studies, fibroblasts were plated at 5×10^4 cells/mL in 16 mm (diameter) 24 well plates (Costar, Cambridge, Mass.). Cells (70-80% confluence) were exposed to IL-1β (1 ng/mL) (Genzyme, Cambridge, Mass.) for the designated time. Drugs in DMSO vehicle (1%) were added to the cell cultures 15 minutes prior to the addition of IL-1. Studies were conducted 3-4 times using synovial cells from different donors. RSF cellular extracts were prepared from cells treated as described above. Briefly, human RSF were removed by trypsin/EDTA, washed, and harvested by centrifugation. Cellular extracts were prepared as previously described (Dignam et al., 1983; Osborn, et al., 1989). Briefly, at the end of the incubation period the cells (1×10^7 cells) were washed 2× in PBS without Ca^2+ and Mg^2+. […]

NF-κB = assay: Nuclear translocation of NF-κB in activated cells (EMSA); type: cell-based; conditions: human monocytes and other mammalian cells; activation with pro-inflammatory stimuli (e.g. TNF-α, LPS)
Experimental: (§1) NF-κB activity may also be measured in an electrophoretic mobility shift assay (EMSA) to assess the presence of NF-κB protein in the nucleus. The cells of interest are cultured to a density of 1×10^6/mL. The cells are harvested by centrifugation, washed in PBS without Ca^2+ and Mg^2+ and resuspended in PBS with Ca^2+ and Mg^2+ at 1×10^7 cells/mL. To examine the effect of compound on the activation of NF-κB, the cell suspensions are treated with various concentrations of drug or vehicle (DMSO, 0.1%) for 30 min. at 37° C. prior to stimulation with TNF-α (5.0 ng/mL) for an additional 15 min. Cellular and nuclear extracts are prepared follows. Briefly, at the end of the incubation period the cells (1×10^7 cells) are washed 2× in PBS without Ca^2+ and Mg^2+. The resulting cell pellets are resuspended in 20 uL of Buffer A (10 mM Hepes (pH 7.9), 10 mM KCl, 1.5 mM MgCl2, 0.5 mM dithiothreitol (DTT) and 0.1% NP-40) and incubated on ice for 10 min. The nuclei are pelleted by microcentrifugation at 3500 rpm for 10 min at 4° C. […] All samples are stored at −80° C. until analyzed. The protein concentration of the extracts is determined according to the method of Bradford (Bradford, 1976) with BioRad reagents.
The effect of compounds on transcription factor activation is assessed in an electrophoretic mobility shift assay (EMSA) using nuclear extracts from treated cells as described above. […]

[2] = Oral bioavailability in rat; type: in vivo
[3] = Oral bioavailability in mouse; type: in vivo
IKK-β = biological target: T1, IKK-β (Homo sapiens, UniProt O14920); assay: IKK-β kinase assay (phosphorylation of N-terminal fragment of IκB-α); type: biochemical
T1 construct: GST; made in house
T1 sequence (O14920 1-756): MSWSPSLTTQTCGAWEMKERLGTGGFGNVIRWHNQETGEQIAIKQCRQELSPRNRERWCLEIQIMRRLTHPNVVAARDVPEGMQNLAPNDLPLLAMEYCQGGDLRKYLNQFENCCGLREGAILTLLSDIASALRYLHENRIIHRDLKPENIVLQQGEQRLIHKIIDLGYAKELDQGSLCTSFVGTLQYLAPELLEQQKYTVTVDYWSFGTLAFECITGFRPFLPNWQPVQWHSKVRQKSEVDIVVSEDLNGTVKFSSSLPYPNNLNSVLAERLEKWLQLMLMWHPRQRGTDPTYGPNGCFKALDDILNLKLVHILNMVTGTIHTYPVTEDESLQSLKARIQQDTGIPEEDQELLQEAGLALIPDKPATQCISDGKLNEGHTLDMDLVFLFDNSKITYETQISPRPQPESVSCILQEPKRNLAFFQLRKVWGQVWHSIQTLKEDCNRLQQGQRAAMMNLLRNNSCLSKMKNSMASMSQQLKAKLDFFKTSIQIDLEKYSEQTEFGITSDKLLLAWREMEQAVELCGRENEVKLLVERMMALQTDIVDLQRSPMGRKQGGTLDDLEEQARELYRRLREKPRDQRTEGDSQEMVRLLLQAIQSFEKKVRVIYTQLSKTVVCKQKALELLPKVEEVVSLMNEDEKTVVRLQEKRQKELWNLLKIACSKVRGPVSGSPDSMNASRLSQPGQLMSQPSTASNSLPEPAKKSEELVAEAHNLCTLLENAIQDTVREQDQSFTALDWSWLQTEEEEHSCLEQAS
Experimental: IKK-β was expressed as a GST-tagged protein, and its activity was assessed in a 96-well scintillation proximity assay (SPA). Briefly, IKK-β was diluted in assay buffer as described above (20 nM final), with various concentrations of compound or DMSO vehicle, 240 nM ATP and 200 nCi [γ-^33P]-ATP (10 mCi/mL, 2000 Ci/mmol; NEN Life Science Products, Boston, Mass.). The reaction was started with the addition of a biotinylated peptide comprising amino acids 15-46 of IκB-α (American Peptide) to a final concentration of 2.4 μM, in a total volume of 50 uL. The sample incubated for one hour a 30° C., followed by the addition of 150 uL of stop buffer (PBS w/o Ca^2+, Mg^2+, 0.1% Triton X-100 (v/v), 10 mM EDTA) containing 0.2 mg streptavidin-coated SPA PVT beads (Amersham Pharmacia Biotech, Piscataway, N.J.). The sample was mixed, incubated for 10 min. at room temperature, centrifuged (1000×g, 2 minutes), and measured on a Hewlett-Packard TopCount.

IL-8 production = assay: Inhibition of IL-8 production through inhibition of NF-κB; type: cell-based; conditions: through the inhibition of NF-κB
Experimental: (§2) Effect of IKK-β inhibition on human monocyte stimulated eicosanoid and cytokine production was assessed as follows: Monocytes were isolated from heparinized whole blood by double gradient centrifugation as previously described. Isolated monocyte enriched PBMCs were then adhered to 24 well culture plates at 2×10^6 cells/mL in RPMI 1640 10% FBS (Hyclone, Logan, Utah) for 2 h. to further enrich the monocyte population. The media was then removed, cells washed once with RPMI 1640, and 1 mL RPMI 1640 10% FBS was added to the wells. Test compounds are added to the wells with a final vehicle concentration of 0.05% DMSO. Monocytes were activated by the addition of 200 ng/mL endotoxin (LPS; E. coli serotype 026:B6)(Sigma, St. Louis, Mo.) and incubated for 24 hrs. Cell-free supernates were analyzed by ELISA for TNF-α (EIA developed at SB), PGE2 (Cayman Chemical, Ann Arbor, Mich.), and IL-8 and IL-6 Biosource International, Camarillo, Calif.). Viability of the cells was determined by trypan blue exclusion.

[4] = test system: LPS-stimulated human monocytes; assay: Pro-inflammatory mediator production from LPS-stimulated human monocytes; type: cell-based
Experimental: as §2

IκB-α = assay: Degradation of IκB-α in cells activated with pro-inflammatory stimuli (Western blot); type: cell-based; conditions: human monocytes and other mammalian cells; activation with pro-inflammatory stimuli (e.g. TNF-α, LPS)
Experimental: as §1, with “min.” for “min. The nuclei are pelleted by microcentrifugation at 3500 rpm for 10 min at 4° C.”
The effect of compounds on the phosphorylation of IκB may be monitored in a Western blot. […] Immunoreactive bands are detected using the Enchanced Chemiluminescence (ECL) assay system (Amersham Corp., Arlington Heights, Ill.).

[5] = In vivo DMPK profile in preclinical species; conditions: preclinical species tested, compared with analog lacking the 4′-F group

Compound: NC(=O)Nc1sc(-c2ccc(F)cc2)cc1C(N)=O [Formula I, 5-(4-fluoro-phenyl)-2-ureido-thiophene-3-carboxylic acid amide]
- pro-inflammatory mediator production [1]: inhibits pro-inflammatory mediator production
- nuclear translocation of NF-κB (NF-κB): blocks
- oral bioavailability [2]: orally bioavailable
- oral bioavailability [3]: orally bioavailable
- inhibition of phosphorylation of the N-terminal fragment of IκB-α by IKK-β (IKK-β): inhibit the phosphorylation of the N-terminal fragment of IκB-α by IKK-β
- IKK-2 inhibitory activity relative to the analog lacking the 4′-F group (IKK-β; compared with analog lacking the 4′-F group): comparable IKK-2 inhibitory activity
- inhibition of IL-8 production (IL-8 production): has been demonstrated
- pro-inflammatory mediator production [4]: inhibits pro-inflammatory mediator production
- degradation of IκB-α (IκB-α): blocks the degradation of IκB-α
- DMPK profile relative to the analog lacking the 4′-F group [5]: significantly improved DMPK profile
